Columns and labels:
FcεR1α = experiment: Taq-Man analysis of bladder mRNA, allergic IC in mice: FcεR1α; assay type: in vivo, mouse; conditions: ovalbumin challenged
Method: (§1) Mice (BALB/c, females 8 weeks old, weight 18-20 g, Charles River, Calco ITA) were sensitized by injecting 10 ug/mouse of chicken ovalbumin from Sigma (OVA, grade V) in the presence of 4 mg of alum (SERVA, Germany) by intraperitoneal injection, once a week for 4 weeks. This induces a sustained level of IgE detectable in serum.
(§2) One or two weeks after the last immunization boost, sensitized mice were anesthetized (1.5% Isoflurane) and then trans-urethrally catheterized (24 gauge, ¾ in.; Angiocath, Becton-Dickson). Slight digital pressure was applied the lower abdomen to drain the urine.
(§3) The urinary bladders were instilled with either 150 ul of either saline or OVA alone, (1 mg/150 ul) infused at a slow rate to avoid trauma and vesico-ureteral reflux and repeated twice within a 30-min interval with the syringe kept in place on the catheter for at least 30 min. Intravesical challenge was repeated 7-10 days after the first one with the same procedure.
An ethanol stock solution of Compound B (1 mg/ml) was dissolved in Miglyol vehicle at the appropriate concentration. Control animals received the vehicle containing the same amount of ethanol. Drug (or vehicle) treatment was carried out by daily gavage after weighing the animal. Drug solution was prepared calculating a final volume of 100 ul/10 grams body weight, and treatment was started on the day of the first intravesical ovalbumin challenge, maintained daily, but discontinued over the weekends, for 12 days total treatment. FIG. 7 illustrates the timeline of the experiment.
Total RNA was extracted from one half of bladder by using RNeasy Mini kit (Qiagen), treated with DNase 1 (Qiagen) and reverse transcription performed with Reverse Transcription Reagent (Applied Biosystems) with Random Hexamers (according to the manufacturer's instructions). cDNA was synthesized from 1 ug of RNA. Real-Time PCR was performed in 96-well optical reaction plates (Applied Biosystems). For each sample we amplified both the target gene and the housekeeping gene (HPRT) in different wells (singleplex) and in duplicate. The amplification Master Mix was prepared according to the following protocol (volumes refer to a single well with a final volume of 40 ul/well)): 2× TaqMan® R Universal PCR Master Mix (Applied Biosystems, 4304437): 20 ul; 20× Assay target gene: 2 ul; H2O: 8 ul; cDNA: 10 ul. Reaction was run on an SDS 7000 (Applied Biosystems) instruments, with the following amplification program: 2′ at 50° C.; 10′ at 95° C.; 15″ at 95° C. and 1′ at 60° C. for 40 cycles; Cycle threshold (Ct) values were exported into Excel Worksheets for analysis and relative quantitations were performed using the ΔCt method. All primers used carried the FAM reporter.
Experiments in Example 7 were performed according to the general procedures described previously in Example 6. Mice were challenged with saline (untreated) or ovalbumin (treatment with vehicle or one of Compounds C-I at a dosage indicated in Table 6 in ug/kg).

[1] = tested on: rats with CYP-induced cystitis; experiment: Cystometry in rats with CYP induced chronic IC, Compound B; assay type: in vivo, rat; conditions: for # of NVBC / FP / MP / TP / amplitude of NVBC / Bl. Cap.: group value; for Bl. Cap.: unit from FIG. 5 legend
Source text: Wistar rats ([…] weighing 125-175 g, age 8 weeks) were used. Under general inhalation anesthesia with 2% isoflurane, polyethylene tubing (PE-50, Clay Adams, Parsippany, N.J.) with the end flared by heat was inserted into the dome of the bladder and secured in place with a 6-0 nylon purse string suture. The distal end of the tubing was sealed, tunneled subcutaneously and externalized through a small incision at the back of the neck. The tubing was then coiled and buried subcutaneously. Following recovery (5 days) subject animals underwent three intraperitoneal injections of CYP (Sigma Chemical, St. Louis, Mo.; 75 mg/kg each, intraperitoneal) over the period of nine days. […] Two weeks following the initiation of the treatment animals underwent a conscious cystometrogram to assess the function of the urinary bladder. […] An ethanol stock solution of Compound B (1 mg/ml) was dissolved in Miglyol vehicle at the appropriate concentration. Control animals received the vehicle containing the same amount of ethanol. Drug (or vehicle) treatment was carried out by daily gavage after weighing the animal. Drug solution was prepared calculating a final volume of 100 ul/10 grams body weight. Following two weeks of treatment, animals were placed unrestrained in a cage and the distal end of the catheter was extracted from the subcutaneous pouch and connected via T-tube to a pressure transducer (Grass® Model PT300, West Warwick, R.I.) and microinjection pump (Harvard Apparatus 22, South Natick, Mass.). Saline solution (0.9%, room temperature) was infused into the bladder at a rate of 10 ml/h. Intravesical pressure was recorded continuously using a Neurodata Acquisition System (Grass®, Astro-Med, West Warwick, R.I.). At a minimum, three reproducible micturition cycles were recorded. […] The post-void residual (PVR) was measured by aspirating the residual urine remaining in the bladder after the last micturition or draining the bladder by gravity. Bladder capacity (BC) was calculated as the sum of voided volume and PVR. The bladder was harvested and its weight was recorded following euthanasia.

total IgE = experiment: Serum total IgE ELISA, allergic IC in mice; assay type: in vivo, mouse; conditions: 75 ug/kg oral vs vehicle; ovalbumin-sensitized BALB/c mice
Method: as §1, §2
as §3, with “procedure. […]” for “procedure.”
Serum total IgE levels were measured by using a commercially available kit (BD Opteia, Mouse IgE ELISA Set Cat. No. 555248) and following manufacturer's instructions. […] After reaction stopping (H2SO4 1M, 50 ul/well) absorbance at 450 nm was recorded within 30 minutes.

[2] = 30 ug/kg oral daily for 14 days
[3] = 75 ug/kg oral daily for 14 days
[4] = vs vehicle, not statistically significant

With `C=C1/C(=C\C=C2/CCC[C@]3(C)C([C@@H](C)C/C=C/C(O)(CC)CC)=CC[C@@H]23)C[C@@H](O)C[C@@H]1F` [Compound B, 1-alpha-fluoro-25-hydroxy-16,23E-diene-26,27-bishomo-20-epi-cholecalciferol] as the molecule, how does the “expression of inflammatory marker FcεR1α” value (FcεR1α; 75 ug/kg oral, individual animals) read?
The value was “down-modulates”.

What about the “expression of inflammatory marker FcεR1α” value (FcεR1α; 30 and 75 ug/kg oral, dose dependent, pooled samples) of the same molecule?
Its value is “significantly reduces”.

And the “# of NVBC” value [1, 2]?
The value was 11.7.

And the FP [1, 2]?
Its FP is 23.3 cm H2O.

And the MP [1, 2]?
The MP was 79.3 cm H2O.

What about the TP [1, 2] of the same molecule?
Its TP is 29.3 cm H2O.

What about the “amplitude of NVBC” value [1, 2] of the same molecule?
The value was 16.6.

What about the “Bl. Cap.” value [1, 2] of the same molecule?
The value was 2.0 mL.

And the “# of NVBC” value [1, 3]?
The value was 8.3.

And the FP [1, 3]?
The FP was 26.1 cm H2O.

What about the MP [1, 3] of the same molecule?
Its MP is 90.5 cm H2O.

And the TP [1, 3]?
Its TP is 36.3 cm H2O.

What about the “amplitude of NVBC” value [1, 3] of the same molecule?
The value was 13.6.

What about the “Bl. Cap.” value [1, 3] of the same molecule?
The value was 2.1 mL.

And the “frequency of non-voiding bladder contractions” value ([1]; both dosage levels (30 ug/kg, p<0.01; 75 ug/kg, p<0.005) vs vehicle)?
The value was “significantly reduced”.

And the bladder capacity ([1]; both dosage levels (30 ug/kg, p<0.01; 75 ug/kg, p<0.01) vs vehicle)?
Its bladder capacity is “increased”.

And the “amplitude of non-voiding bladder contractions” value ([1]; higher dose level (75 ug/kg), not statistically significant)?
The value was “reduced”.

What about the filling pressure [1, 4] of the same molecule?
The filling pressure was “Marginal increase”.

What about the threshold pressure [1, 4] of the same molecule?
Its threshold pressure is “Marginal increase”.

And the “total amount of IgE in serum” value (total IgE)?
Its value is “no significant changes”.

Source: patent US20080039434A1, “Treatment of Interstitial Cystitis with Vitamin D Compounds” (BioXell S. p.A., priority 2004, published 2008)
